Test results as given in patent publication US20240016942A1, “STAT DEGRADERS AND USES THEREOF” (Kymera Therapeutics, Inc., priority 2020, published 2024).

Molecular target: T1, STAT3 (Homo sapiens, UniProt P40763)
T1 construct: expressed in transfected cells; host or cells: A549
Assay: STAT3 HiBiT degradation assay (Nano-Glo HiBiT lytic detection) in transfected A549 cells
Assay type: cell-based
Settings: 24 h compound incubation, read-out: STAT3 HiBIT A549 degradation 24 h: Average external-Abs DC50
Procedure: Example 1. HiBiT Assay Protocol
Compound preparation and Cell seeding: The transfected A549 cells were harvested from dish into cell culture medium and cell numbers counted. Cells were diluted with culture medium to the desired density and 30 μL of cell suspension (about 2000 cells/well) were added into each well of a 384-well cell culture plate as designated and transferred into 37° C. 5% CO2 incubator for 24 h. Compounds were dissolved to 10 mM stock solution and 12 μL of the stock solution was transferred to a 384 LDV-plate. 3 fold, 10-point dilution was performed by transferring 4 μL compound into 8 μL DMSO using a TECAN (EVO200) liquid handler. 30 μl of diluted compound from compound source plate was transferred into the cell plate as designated by using Echo550 and transferred into 37° C. 5% CO2 incubator for 24 h.
Detection: Plates were removed from incubators and equilibrated at room temperature for 15 minutes. Nano-Glo Hibit Lytic Detection reagent (Promega Cat #N3040) was thawed and equilibrated to room temperature before the experiment. 30 μL of Nano-Glo Hibit Lytic Detection reagent was added into each well to be detected. The plates were held at room temperature for 10 min followed by reading on EnSpire.
Data analysis: The remaining activity was calculated following the formula: Remaining Activity (%)=100%×(Lumsample−LumNC)/(LumPC−LumNC). Calculate the IC50 by fitting the curve using Xlfit (v5.3.1.3), equation 201: fit=(A+((B−A)/(1+((x/C)^D)))); A: Botton; B: Top; C: IC50; and D: Slope.
The letter codes for STAT3 DC50 include: A (<0.01 μM), B (0.01-0.1 μM), C (0.1-1.0 μM), and D (>1.0 μM).

T1 sequence (P40763 whole entry): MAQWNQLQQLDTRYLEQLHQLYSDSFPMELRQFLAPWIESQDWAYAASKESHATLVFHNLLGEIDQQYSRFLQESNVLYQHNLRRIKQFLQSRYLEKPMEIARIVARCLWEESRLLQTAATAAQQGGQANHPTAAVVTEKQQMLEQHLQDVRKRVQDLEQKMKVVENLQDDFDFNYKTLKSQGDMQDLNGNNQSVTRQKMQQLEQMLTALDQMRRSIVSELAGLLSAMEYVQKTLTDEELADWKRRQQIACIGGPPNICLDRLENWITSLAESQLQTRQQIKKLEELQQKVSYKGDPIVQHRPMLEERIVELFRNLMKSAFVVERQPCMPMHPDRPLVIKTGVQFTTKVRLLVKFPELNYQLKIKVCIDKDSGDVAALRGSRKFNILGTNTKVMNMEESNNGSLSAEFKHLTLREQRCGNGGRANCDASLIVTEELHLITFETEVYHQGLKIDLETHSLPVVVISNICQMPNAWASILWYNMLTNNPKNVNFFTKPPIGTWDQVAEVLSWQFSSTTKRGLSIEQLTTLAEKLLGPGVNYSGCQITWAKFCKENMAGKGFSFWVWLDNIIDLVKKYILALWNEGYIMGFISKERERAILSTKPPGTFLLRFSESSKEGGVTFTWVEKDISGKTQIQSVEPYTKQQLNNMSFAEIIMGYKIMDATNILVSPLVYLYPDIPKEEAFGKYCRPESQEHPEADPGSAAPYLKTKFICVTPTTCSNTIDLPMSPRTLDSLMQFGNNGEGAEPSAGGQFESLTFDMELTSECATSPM

With `Cn1c(=O)n(C2CCC(=O)NC2=O)c2ccc(NCCCCCc3cc4c5c(c3)C[C@@H](C(=O)N[C@@H](CCC(N)=O)C(=O)NCc3ccc(S(C)(=O)=O)cc3)N5C(=O)[C@@H](NC(=O)c3cc5cc(C(=O)P(=O)(O)O)ccc5[nH]3)CC4)cc21` (stereo partly drawn) [I-57, 2-[[(2S,11S)-2-[[(1S)-3-carbamoyl-1-[[(4-methanesulfonylphenyl)methyl]carbamoyl]propyl]carbamoyl]-6-(5-[[1-(2,6-dioxopiperidin-3-yl)-3-methyl-2-oxo-1,3-benzodiazol-5-yl]amino]pentyl)-12-oxo-1-azatricyclo[6.4.1.0^[4,13]]trideca-4(13),5,7-trien-11-yl]carbamoyl]-1H-indole-5-carbonylphosphonic acid] the DC50 was 10 to 100 nM.
`Cc1ncsc1-c1ccc([C@H](C)NC(=O)[C@@H]2C[C@@H](O)CN2C(=O)[C@@H](NC(=O)CCCc2cccc(OC[C@H](CCC(N)=O)NC(=O)[C@@H]3CCCN3C(=O)[C@H](C)NC(=O)c3cc4cc(C(=O)P(=O)(O)O)ccc4[nH]3)c2Cl)C(C)(C)C)cc1` [I-58] gave a DC50 of 10 to 100 nM.
Work on `CC(C)c1ccc(CNC(=O)[C@H](CCC(N)=O)NC(=O)[C@@H]2CC[C@@H]3CCN(C(=O)[C@H]4CC[C@@H](CCc5ccc6c(c5)n(C)c(=O)n6C5CCC(=O)NC5=O)CC4)C[C@H](NC(=O)c4cc5cc(C(=O)P(=O)(O)O)ccc5[nH]4)C(=O)N32)cc1` (stereo partly drawn) [I-59, (2-(((5S,8S,10aR)-8-(((S)-5-amino-1-((4-isopropylbenzyl)amino)-1,5-dioxopentan-2-yl)carbamoyl)-3-((1r,4R)-4-(2-(1-(2,6-dioxopiperidin-3-yl)-3-methyl-2-oxo-2,3-dihydro-1H-benzo[d]imidazol-5-yl)ethyl)cyclohexane-1-carbonyl)-6-oxodecahydropyrrolo[1,2-a][1,5]diazocin-5-yl)carbamoyl)-1H-indole-5-carbonyl)phosphonic acid] yielded a DC50 of 10 to 100 nM.
In the case of `Cc1ncsc1-c1ccc([C@H](C)NC(=O)[C@@H]2C[C@@H](O)CN2C(=O)[C@@H](NC(=O)CCCc2cccc(OC[C@H](CCC(N)=O)NC(=O)[C@@H]3CC[C@@H]4CCN(C(=O)c5cccc(F)c5)C[C@H](NC(=O)c5cc6cc(C(=O)P(=O)(O)O)ccc6[nH]5)C(=O)N43)c2Cl)C(C)(C)C)cc1` [I-60], the DC50 is reported as 10 to 100 nM.
Work on `Cc1ncsc1-c1ccc([C@H](C)NC(=O)[C@@H]2C[C@@H](O)CN2C(=O)[C@@H](NC(=O)CCCc2cccc(OC[C@H](CCC(N)=O)NC(=O)[C@@H]3CCCN3C(=O)[C@H](Cc3c[nH]cn3)NC(=O)c3cc4cc(C(=O)P(=O)(O)O)ccc4[nH]3)c2Cl)C(C)(C)C)cc1` [I-61] yielded a DC50 of 10 to 100 nM.
Compound `CCS(=O)(=O)c1ccc(CNC(=O)[C@H](CCC(N)=O)NC(=O)[C@@H]2CC[C@@H]3CCN(C(=O)C[C@H]4CC[C@@H](Cc5ccc6c(c5)n(C)c(=O)n6C5CCC(=O)NC5=O)CC4)C[C@H](NC(=O)c4cc5cc(C(=O)P(=O)(O)O)ccc5[nH]4)C(=O)N32)cc1` (some centres unmarked) [I-62] has a DC50 of 10 to 100 nM.
With `Cc1ncsc1-c1ccc(CNC(=O)[C@@H]2C[C@@H](O)CN2C(=O)[C@@H](c2cc(OCCCc3cccc(OC[C@H](CCC(N)=O)NC(=O)[C@@H]4Cc5cccc6c5N4C(=O)[C@@H](NC(=O)c4cc5cc(C(=O)P(=O)(O)O)ccc5[nH]4)CC6)c3Cl)no2)C(C)C)cc1` [I-63] the DC50 was < 10 nM.
`CN1C(=O)CCC(n2c(=O)n(C)c3cc(C[C@H]4CC[C@@H](CC(=O)N5CC[C@H]6CC[C@@H](C(=O)N[C@@H](CCC(N)=O)C(=O)NC(c7ccccc7)c7ccccc7)N6C(=O)[C@@H](NC(=O)c6cc7cc(C(=O)P(=O)(O)O)ccc7[nH]6)C5)CC4)ccc32)C1=O` (some centres unmarked) [I-64] was tested, and the DC50 was > 1000 nM.
For `C[C@H](NC(=O)[C@@H]1Cc2cc(CCCCCCc3ccc4c(c3)n(C)c(=O)n4C3CCC(=O)NC3=O)cc3c2N1C(=O)[C@@H](NC(=O)c1cc2cc(C(=O)P(=O)(O)O)ccc2[nH]1)CC3)C(=O)NCc1ccc(S(C)(=O)=O)cc1` (stereo partly drawn) [I-65, 2-[[(2S,11S)-6-[6-[1-(2,6-dioxopiperidin-3-yl)-3-methyl-2-oxo-1,3-benzodiazol-5-yl]hexyl]-2-[[(1S)-1-[[(4-methanesulfonylphenyl)methyl]carbamoyl]ethyl]carbamoyl]-12-oxo-1-azatricyclo[6.4.1.0^[4,13]]trideca-4(13),5,7-trien-11-yl]carbamoyl]-1H-indole-5-carbonylphosphonic acid], the DC50 was > 1000 nM.
For `Cc1ncsc1-c1ccc([C@H](C)NC(=O)[C@@H]2C[C@@H](O)CN2C(=O)[C@@H](NC(=O)CCCc2cccc(OC[C@H](CCC(N)=O)NC(=O)[C@@H]3CC[C@@H]4CCN(C(=O)C(F)(F)F)C[C@H](NC(=O)c5cc6cc(C(=O)P(=O)(O)O)ccc6[nH]5)C(=O)N43)c2Cl)C(C)(C)C)cc1` [I-66], the DC50 was < 10 nM.
In the case of `Cn1c(=O)n(C2CCC(=O)NC2=O)c2ccc(C[C@H]3CC[C@@H](CC(=O)N4CC[C@H]5CC[C@@H](C(=O)N[C@@H](CCC(N)=O)COc6ccc(S(C)(=O)=O)cc6)N5C(=O)[C@@H](NC(=O)c5cc6cc(C(=O)P(=O)(O)O)ccc6[nH]5)C4)CC3)cc21` (some centres unmarked) [I-67], the DC50 is reported as 100 to 1000 nM.
With `Cn1c(=O)n(C2CCC(=O)NC2=O)c2ccc(CC[C@H]3CC[C@@H](C(=O)N4CC[C@H]5CC[C@@H](C(=O)N[C@@H](CCC(N)=O)C(=O)NCc6ccc(S(C)(=O)=O)cc6)N5C(=O)[C@@H](NC(=O)c5cc6cc(C(=O)P(=O)(O)O)ccc6[nH]5)C4)CC3)cc21` (stereo partly drawn) [I-68, 2-[[(5S,8S,10aR)-8-[[(1S)-3-carbamoyl-1-[[(4-methanesulfonylphenyl)methyl]carbamoyl]propyl]carbamoyl]-6-oxo-3-[(1r,4s)-4-[2-[1-(2,6-dioxopiperidin-3-yl)-3-methyl-2-oxo-1,3-benzodiazol-5-yl]ethyl]cyclohexanecarbonyl]-octahydropyrrolo[1,2-a][1,5]diazocin-5-yl]carbamoyl]-1H-indole-5-carbonylphosphonic acid] the DC50 was 10 to 100 nM.
In the case of `CC(=O)N1CC[C@H]2CC[C@@H](C(=O)N[C@@H](CCC(N)=O)COc3cccc(CCCOc4cc([C@H](C(=O)N5C[C@H](O)C[C@H]5C(=O)NCc5ccc(-c6scnc6C)cc5)C(C)C)on4)c3Cl)N2C(=O)[C@@H](NC(=O)c2cc3cc(C(=O)P(=O)(O)O)ccc3[nH]2)C1` [I-69], the DC50 is reported as < 10 nM.
`CC(C)S(=O)(=O)c1ccc(CNC(=O)[C@H](CCC(N)=O)NC(=O)[C@@H]2CC[C@@H]3CCN(C(=O)C[C@H]4CC[C@@H](Cc5ccc6c(c5)n(C)c(=O)n6C5CCC(=O)NC5=O)CC4)C[C@H](NC(=O)c4cc5cc(C(=O)P(=O)(O)O)ccc5[nH]4)C(=O)N32)cc1` (some centres unmarked) [I-70] showed a DC50 of 10 to 100 nM.
Work on `Cc1ncsc1-c1ccc(C2(NC(=O)[C@@H]3C[C@@H](O)CN3C(=O)[C@@H](NC(=O)CCCc3cccc(OC[C@H](CCC(N)=O)NC(=O)[C@@H]4Cc5cccc6c5N4C(=O)[C@@H](NC(=O)c4cc5cc(C(=O)P(=O)(O)O)ccc5[nH]4)CC6)c3Cl)C(C)(C)C)CC2)cc1` [I-71] yielded a DC50 of 10 to 100 nM.
For `CC(=O)N1CC[C@H]2CC[C@@H](C(=O)N[C@@H](CCC(N)=O)COc3cccc(CCCC(=O)N[C@H](C(=O)N4C[C@H](O)C[C@H]4C(=O)NC4(c5ccc(-c6scnc6C)cc5)CC4)C(C)(C)C)c3Cl)N2C(=O)[C@@H](NC(=O)c2cc3cc(C(=O)P(=O)(O)O)ccc3[nH]2)C1` [I-72], the DC50 was 10 to 100 nM.
`Cn1c(=O)n(C2CCC(=O)NC2=O)c2ccc(CC[C@H]3CC[C@H](C(=O)N4CC[C@H]5CC[C@@H](C(=O)N[C@@H](CCC(N)=O)C(=O)NCc6ccc(S(C)(=O)=O)cc6)N5C(=O)[C@@H](NC(=O)c5cc6cc(C(=O)P(=O)(O)O)ccc6[nH]5)C4)CC3)cc21` (some centres unmarked) [I-73] showed a DC50 of 10 to 100 nM.
